Laboratory results taken from patent US6780870B2, “Pyrimidine derivatives as selective inhibitors of COX-2” (SmithKline Beecham Corporation, priority 2000, dated 2004).

Experiments:
human COX-1 = target: T1, human COX-1 (Homo sapiens, UniProt P23219); assay: Inhibition of PGE2 release in COS cells stably transfected with human COX-1; type: cell-based; conditions: COS cells stably transfected with cDNA for human COX-1; PGE2 release by enzyme immunoassay; 1 hour preincubation; 30 μM arachidonic acid, 15 minutes
T1 construct: expressed in transfected cells
Procedure: (§1) Inhibitory activity against human COX-1 and COX-2 was assessed in COS cells which had been stably transfected with cDNA for human COX-1 and human COX-2. 24 Hours prior to experiment, COS cells were transferred from the 175 cm^2 flasks in which they were grown, onto 24-well cell culture plates using the following procedure. The incubation medium (Dulbecco's modified eagles medium (DMEM) supplemented with heat-inactivated foetal calf serum (10% v/v), penicillin (100 IU/ml), streptomycin (100 μg/ml) and geneticin (600 μg/ml)) was removed from a flask of confluent cells (1 flask at confluency contains approximately 1×10^7 cells). 10 ml of phosphate buffered saline (PBS) was added to the flask to wash the cells. Having discarded the PBS, cells were then rinsed in 10 ml trypsin for 20 seconds, after which the trypsin was removed and the flask placed in an incubator (37°) for 1-2 minutes until cells became detached from the flask. The flask was then removed from the incubator and cells resuspended in 10 ml of fresh incubation medium. The contents of the flask was transferred to a 250 ml sterile container and the volume of incubation medium subsequently made up to 100 ml. 1 ml cell suspension was pipetted into each well of 4×24-well cell culture plates. The plates were then placed in an incubator (37° C., 95% air/5% CO2) overnight. If more than 1 flask of cells were required, the cells from the individual flasks were combined before being dispensed into the 24-well plates.
(§2) Following the overnight incubation, the incubation medium was completely removed from the 24-well cell culture plates and replaced with 250 μl fresh DMEM (37° C.). The test compounds were made up to 250× the required test concentration in DMSO and were added to the wells in a volume of 1 μl. Plates were then mixed gently by swirling and then placed in an incubator for 1 hour (37° C., 95% air/5% CO2). […] Plates were then incubated for a further 15 minutes, after which the incubation medium was removed from each well of the plates and stored at −20° C., prior to determination of prostaglandin E2 (PGE2) levels using enzyme immunoassay. […] The selectivity ratio of inhibition of COX-1 versus COX-2 was calculated by comparing respective IC50 values.

human COX-2 = target: T2, human COX-2 (Homo sapiens, UniProt P35354); assay: Inhibition of PGE2 release in COS cells stably transfected with human COX-2; type: cell-based; conditions: COS cells stably transfected with cDNA for human COX-2; PGE2 release by enzyme immunoassay; 1 hour preincubation; 30 μM arachidonic acid, 15 minutes
T2 construct: expressed in transfected cells
T2 sequence (P35354 18-604): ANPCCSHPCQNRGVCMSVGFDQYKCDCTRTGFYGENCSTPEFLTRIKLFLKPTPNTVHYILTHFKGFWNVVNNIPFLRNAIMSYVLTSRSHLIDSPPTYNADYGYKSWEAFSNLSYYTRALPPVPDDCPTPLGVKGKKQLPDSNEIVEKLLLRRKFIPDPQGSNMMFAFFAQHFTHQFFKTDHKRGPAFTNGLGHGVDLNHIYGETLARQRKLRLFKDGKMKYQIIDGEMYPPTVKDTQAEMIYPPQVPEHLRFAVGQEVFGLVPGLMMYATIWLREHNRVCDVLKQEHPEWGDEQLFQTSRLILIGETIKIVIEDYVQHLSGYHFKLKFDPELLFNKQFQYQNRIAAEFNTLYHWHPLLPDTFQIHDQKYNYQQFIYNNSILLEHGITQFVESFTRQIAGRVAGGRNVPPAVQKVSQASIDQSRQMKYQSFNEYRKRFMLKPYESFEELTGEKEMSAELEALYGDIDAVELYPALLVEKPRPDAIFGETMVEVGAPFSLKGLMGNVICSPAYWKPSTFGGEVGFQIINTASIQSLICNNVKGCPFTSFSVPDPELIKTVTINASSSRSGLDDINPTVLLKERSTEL
Procedure: as §1, §2

T1 sequence (P23219 24-599): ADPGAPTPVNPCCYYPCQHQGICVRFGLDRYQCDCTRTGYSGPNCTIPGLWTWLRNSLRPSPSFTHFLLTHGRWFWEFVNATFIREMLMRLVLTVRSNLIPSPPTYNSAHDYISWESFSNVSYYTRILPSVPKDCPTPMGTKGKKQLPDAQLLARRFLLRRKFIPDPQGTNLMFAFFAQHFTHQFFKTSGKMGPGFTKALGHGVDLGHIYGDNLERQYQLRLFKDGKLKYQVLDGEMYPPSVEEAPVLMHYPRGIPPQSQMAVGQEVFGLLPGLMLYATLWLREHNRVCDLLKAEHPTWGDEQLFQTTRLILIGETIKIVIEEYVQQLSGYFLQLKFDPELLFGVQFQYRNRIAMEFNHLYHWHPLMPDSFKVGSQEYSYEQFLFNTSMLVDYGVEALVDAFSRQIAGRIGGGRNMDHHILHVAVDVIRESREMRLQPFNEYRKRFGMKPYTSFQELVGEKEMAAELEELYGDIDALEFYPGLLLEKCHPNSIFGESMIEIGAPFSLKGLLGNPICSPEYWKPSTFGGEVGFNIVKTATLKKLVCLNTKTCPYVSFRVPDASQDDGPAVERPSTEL

Compound	IC50 (human COX-1) [nM]	IC50 (human COX-2) [nM]
CS(=O)(=O)c1ccc(-c2cc(C(F)(F)F)nc(NCc3ccncc3)n2)cc1 [Example 1, 4-[4-(Methylsulfonyl)phenyl]-N-(pyridin-4-ylmethyl)-6-(trifluoromethyl)pyrimidin-2-amine]	> 100000	1.3
CS(=O)(=O)c1ccc(-c2cc(C(F)(F)F)nc(NCc3cccnc3)n2)cc1 [Example 2, 4-[4-(Methylsulfonyl)phenyl]-N-(pyridin-3-ylmethyl)-6-(trifluoromethyl)pyrimidin-2-amine]	> 100000	10.8
CS(=O)(=O)c1ccc(-c2cc(C(F)(F)F)nc(NCc3ccccn3)n2)cc1 [Example 3, 4-[4-(Methylsulfonyl)phenyl]-N-(pyridin-2-ylmethyl)-6-(trifluoromethyl)pyrimidin-2-amine]	> 100000	2.5
CS(=O)(=O)c1ccc(-c2cc(C(F)(F)F)nc(NCc3ccccc3)n2)cc1 [Example 4, 4-[4-(Methylsulfonyl)phenyl]-N-(phenylmethyl)-6-(trifluoromethyl)-2-pyrimidinamine]	> 100000	0.25
COc1ccc(CNc2nc(-c3ccc(S(C)(=O)=O)cc3)cc(C(F)(F)F)n2)cc1 [Example 9, N-(4-methoxybenzyl)-4-[4-(methylsulfonyl)phenyl]-6-(trifluoromethyl)pyrimidin-2-amine]	> 100000	34
